Data from patent US12643876B2, “Deuterated hpki kinase inhibitor, and preparation method therefor and use thereof” (ZHUHAI YUFAN BIOTECHNOLOGIES CO., LTD, priority 2020, dated 2026).

Tests used:
[1] = Free base crystalline form B nitrogen purging (XRPD); type: physicochemical; conditions: nitrogen purging at 30° C. for 20 minutes
[2] = Solid state stability of free base crystalline form A (HPLC); type: physicochemical; conditions: 60° C./1 day, closed space
Description: Solid State Stability of Free Base Crystalline Form A
The XRPD patterns of an initial sample of the free base crystalline form A described above and the free base crystalline form A after 1 day of standing in a closed space at 60° C. are shown in FIG. 5, and the HPLC results are shown in Table 5.

[3] = Free base crystalline form B standing at room temperature (XRPD); type: physicochemical; conditions: closed space, 5 days
Description: The XRPD patterns of free base crystalline form B of compound A2 before and after standing at room temperature are shown in FIG. 9.

[4] = microsome metabolite identification / stability, human liver microsomes; type: in vitro ADME; conditions: 37° C.
Description: (§1) The operation steps for microsome metabolite identification were as follows:
(§2) For the sample with T=60 min, 4 μL of the test sample working solution (1.0 mM), 316 μL of the liver microsome working solution (1.27 mg/mL) and 80 μL of the reduced coenzyme working solution were added sequentially to start the reaction; for the sample with T=0 min, 316 μL of the liver microsome working solution (1.27 mg/mL) was added, and 80 μL of the reduced coenzyme working solution was added to start the reaction, with no test sample incubation; after incubation at 37° C. for 60 min, 1200 μL of stop buffer was added to stop the enzymatic reaction; and for the sample with T=0 min, 4 μL of the test sample working solution (1.0 mM) was added. The sample plate was placed on a vortexer and vortexed at 600 rpm for 5 min. The mixture was centrifuged at 4000 rpm for 10 min, and the supernatant was removed, mixed and purged with nitrogen to dryness at room temperature. The resulting solution was re-dissolved with 300 μL of 10% acetonitrile (0.1% FA), the […] centrifuged at 4000 rpm for 15 min, and the supernatant was transferred to a detection plate for mass spectrometry. Mass spectrometry was performed using an LC/Q-Exactive plus. 7-ethoxycoumarin (10 μM) was selected as a positive control compound, using the procedure same as that of the compounds.

[5] = microsome metabolite identification / stability, mouse liver microsomes; type: in vitro ADME; conditions: 37° C.
Description: as §1, §2

[6] = microsome metabolite identification / stability, beagle liver microsomes; type: in vitro ADME; conditions: 37° C.
Description: as §1, §2

[7] = microsome metabolite identification / stability, rat liver microsomes; type: in vitro ADME; conditions: 37° C.
Description: as §1, §2

[8] = microsome metabolite identification / stability, cynomolgus monkey liver microsomes; type: in vitro ADME; conditions: 37° C.
Description: as §1, §2

Row | crystalline form stability (XRPD) [1] | HPLC Area (%) of peak 4 (RRT 1.06) ([2]; initial sample 0.10) [%] | HPLC Area (%) of peak 3 (RRT 1.05) ([2]; initial sample 0.22) [%] | HPLC Area (%) of peak 1 (RRT 0.95) ([2]; initial sample 0.42) [%] | HPLC Area (%) of peak 2 (RRT 1.00, main peak) ([2]; initial sample 99.26) [%] | remaining percentage of the parent nucleus after 60 min [4] [%] | remaining percentage of the parent nucleus after 60 min [5] [%] | remaining percentage of the parent nucleus after 60 min [6] [%] | remaining percentage of the parent nucleus after 60 min [7] [%] | remaining percentage of the parent nucleus after 60 min [8] [%] | Compound | crystalline form stability (XRPD) [3]
1 | conversion in crystalline forms | 0.09 | 0.17 | 0.41 | 99.33 | – | – | – | – | – | [2H]C([2H])([2H])N1CCC(n2cc(-c3cnc(N)c(OCc4cccc(C#CC(C)(C)O)c4)c3)cn2)CC1 [4-(3-(((2-amino-S-(1-(1-trideuteromethylpiperidin-4-yl)-1H-pyrazol-4-yl)pyridin-3-yl)oxy)methyl)phenyl)-2-methylbut-3-yn-2-ol] | tendency of converting into the free base crystalline form A
2 | – | – | – | – | – | 83.9 | 55.0 | 7.0 | 52.1 | 29.6 | [2H]C([2H])([2H])N1CCC(n2cc(-c3cnc(N)c(OCc4cccc(C#CC(C)(C)O)c4)c3)cn2)CC1 [Compound A2, 4-(3-(((2-amino-S-(1-(1-trideuteromethylpiperidin-4-yl)-1H-pyrazol-4-yl)pyridin-3-yl)oxy)methyl)phenyl)-2-methylbut-3-yn-2-ol] | –

Second part, the compound before the results:

Row | Compound | crystalline form stability (XRPD) [1] | HPLC Area (%) of peak 4 (RRT 1.06) ([2]; initial sample 0.10) [%] | HPLC Area (%) of peak 3 (RRT 1.05) ([2]; initial sample 0.22) [%] | HPLC Area (%) of peak 1 (RRT 0.95) ([2]; initial sample 0.42) [%] | HPLC Area (%) of peak 2 (RRT 1.00, main peak) ([2]; initial sample 99.26) [%] | remaining percentage of the parent nucleus after 60 min [4] [%] | remaining percentage of the parent nucleus after 60 min [5] [%] | remaining percentage of the parent nucleus after 60 min [6] [%] | remaining percentage of the parent nucleus after 60 min [7] [%] | remaining percentage of the parent nucleus after 60 min [8] [%] | crystalline form stability (XRPD) [3]
3 | CN1CCC(n2cc(-c3cnc(N)c(OCc4cccc(C#CC(C)(C)O)c4)c3)cn2)CC1 [Compound A1, reference compound] | – | – | – | – | – | 43.84 | 1.13 | 0.17 | 2.44 | 0.36 | –
4 | CN1CCC(c2ncc(-c3cnc(N)c(OCc4cccc(C#CC(C)(C)O)c4)c3)s2)CC1 [Compound B1, reference compound] | – | – | – | – | – | 51.82 | 1.24 | 0.12 | 11.21 | 9.11 | –
5 | [2H]C([2H])([2H])N1CCC(c2ncc(-c3cnc(N)c(OCc4cccc(C#CC(C)(C)O)c4)c3)s2)CC1 [Compound B2] | – | – | – | – | – | 70.4 | 42.8 | 8.9 | 43.9 | 23.4 | –
